Legend:
[1] = system: Spontaneously hypertensive rats (SHR); test: SBP of SHR by Tail-Cuff method, continuous intragastric administration for 8 days (Examples 1-7); type: in vivo, rat
Experimental: Spontaneously hypertensive rats (SHR), male, are provided by Beijing Vital River Laboratory Animal Technology Co., Ltd. The number of animal production license is SCXK (Jing) 2007-0001. Animals are raised in an observation room at the room temperature of 25±2° C. controlled by central air-conditioning system and with artificial lighting of 12 h/day. The animals are raised in separate cages sized 43×27×18 cm with 4 animals for each cage. The rats are free access to water and are fed with block fodder everyday, and the water supply is refreshed once a day. The temperature of the room for measuring the blood pressure is 26±2° C.
The blood pressure is measured by Tail-Cuff method and the hear rate is measured according to the pulse frequency. Animals are pre-trained for the blood pressure measurement for more than 2 weeks so as to adapt to the environment of measurement. Animals are placed in a isothermal bag at 37° C. to be prewarmed for 5 to 10 min for formal measurement. Blood pressures of the rats are measured from tail arteries for 2 to 3 times at rest states, and an average value is taken as each blood pressure measured value. All data are collected and preserved by a computer.
SHRs with systolic blood pressures (SBPs) >190 mmHg are selected for experiment.
Rats are randomly divided into 14 groups according to their blood pressures with each group having 7 rats. Animals are fasted overnight and measured for the blood pressure of pre-administration at the day of experiment, and then administered drugs in accordance with the following method:
The single-drug group is intragastrically administered candesartan (Can) or chlorthalidone (Chl), with the dosage of Can of 0.36 mg/kg and the dosages of Chl of 0.0675, 0.36, 0.54, 0.72, 1.125 and 2.25 mg/kg respectively;
The pharmaceutical composition is administered with 6 different doses (denoted by F1, F2, F3, F4, F5 and F6 respectively). Specifically, the ratios of the dosages of Can+Chl in all pharmaceutical compositions are:
The administration volumes are all 5 ml/kg.
Rats are continuously administered for 8 days. SBPs are measured 2, 4, 8, 12 and 24 hours after the last administration. The area under blood pressure reduction-time curve from 0 to 24 h (AUC0-24) and the maximum blood pressure reduction value are calculated.
The calculated results are expressed as mean±standard error ( x±SE); statistical treatment is performed using unpaired t test between groups to compare the significance of the average difference; the interaction between drugs are determined by using factorial analysis of variance, and P<0.05 means the difference has statistical significance.

[2] = system: Spontaneously hypertensive rats (SHR); test: SBP of SHR by Tail-Cuff method, first administration and continuous administration for 14 days (Examples 8-12); type: in vivo, rat
[3] = cited from earlier work
[4] = clinical studies; cited from earlier work
patients = conditions: study in 1714 patients; cited from earlier work
[5] = Chl 0.0675 mg/kg i.g. 8 days, 2 h after last administration
[6] = Chl 0.0675 mg/kg i.g. 8 days, 4 h after last administration
[7] = Chl 0.0675 mg/kg i.g. 8 days, 8 h after last administration
[8] = Chl 0.0675 mg/kg i.g. 8 days, 12 h after last administration
[9] = Chl 0.0675 mg/kg i.g. 8 days, 24 h after last administration
[10] = Chl 0.0675 mg/kg i.g. 8 days, pre-administration
[11] = Chl 0.36 mg/kg i.g. 8 days (Table 2), 2 h after last administration
[12] = Chl 0.36 mg/kg i.g. 8 days (Table 2), 4 h after last administration
[13] = Chl 0.36 mg/kg i.g. 8 days (Table 2), 8 h after last administration
[14] = Chl 0.36 mg/kg i.g. 8 days (Table 2), 12 h after last administration
[15] = Chl 0.36 mg/kg i.g. 8 days (Table 2), 24 h after last administration
[16] = Chl 0.36 mg/kg i.g. 8 days (Table 2), pre-administration
[17] = Chl 1.125 mg/kg i.g. 8 days, 2 h after last administration
[18] = Chl 1.125 mg/kg i.g. 8 days, 4 h after last administration
[19] = Chl 1.125 mg/kg i.g. 8 days, 8 h after last administration
[20] = Chl 1.125 mg/kg i.g. 8 days, 12 h after last administration
[21] = Chl 1.125 mg/kg i.g. 8 days, 24 h after last administration
[22] = Chl 1.125 mg/kg i.g. 8 days, pre-administration
[23] = Chl 2.25 mg/kg i.g. 8 days, 2 h after last administration
[24] = Chl 2.25 mg/kg i.g. 8 days, 4 h after last administration
[25] = Chl 2.25 mg/kg i.g. 8 days, 8 h after last administration
[26] = Chl 2.25 mg/kg i.g. 8 days, 12 h after last administration
[27] = Chl 2.25 mg/kg i.g. 8 days, 24 h after last administration
[28] = Chl 2.25 mg/kg i.g. 8 days, pre-administration
[29] = Chl, dosage 0.36 mg/kg in Table 3 (Example 3 title: 0.54 mg/kg), i.g. 8 days, 2 h after last administration
[30] = Chl, dosage 0.36 mg/kg in Table 3 (Example 3 title: 0.54 mg/kg), i.g. 8 days, 4 h after last administration
[31] = Chl, dosage 0.36 mg/kg in Table 3 (Example 3 title: 0.54 mg/kg), i.g. 8 days, 8 h after last administration
[32] = Chl, dosage 0.36 mg/kg in Table 3 (Example 3 title: 0.54 mg/kg), i.g. 8 days, 12 h after last administration
[33] = Chl, dosage 0.36 mg/kg in Table 3 (Example 3 title: 0.54 mg/kg), i.g. 8 days, 24 h after last administration
[34] = Chl, dosage 0.36 mg/kg in Table 3 (Example 3 title: 0.54 mg/kg), i.g. 8 days, pre-administration
[35] = Chl, dosage 0.36 mg/kg in Table 4 (Example 4 title: 0.72 mg/kg), i.g. 8 days, 2 h after last administration
[36] = Chl, dosage 0.36 mg/kg in Table 4 (Example 4 title: 0.72 mg/kg), i.g. 8 days, 4 h after last administration
[37] = Chl, dosage 0.36 mg/kg in Table 4 (Example 4 title: 0.72 mg/kg), i.g. 8 days, 8 h after last administration
[38] = Chl, dosage 0.36 mg/kg in Table 4 (Example 4 title: 0.72 mg/kg), i.g. 8 days, 12 h after last administration
[39] = Chl, dosage 0.36 mg/kg in Table 4 (Example 4 title: 0.72 mg/kg), i.g. 8 days, 24 h after last administration
[40] = Chl, dosage 0.36 mg/kg in Table 4 (Example 4 title: 0.72 mg/kg), i.g. 8 days, pre-administration
[41] = 12.5-25 mg/d of chlorthalidone, clinical studies

## NS(=O)(=O)c1cc(C2(O)NC(=O)c3ccccc32)ccc1Cl (stereo not drawn) [Chl, Chlorthalidone]
[1]; Chl 0.0675 mg/kg
  antihypertensive effect after the administration: no significant antihypertensive effect
[1]; Chl 0.0675 mg/kg i.g. 8 days
  AUC0-24h (area under blood pressure reduction-time curve): −9.0 mmHg · h
  maximum reduction of the blood pressure: −4.7 mmHg
[1]; [5]
  SBP: 203 mmHg
  SBP difference value compared with the basic value: (−2.1 mmHg
[1]; [6]
  SBP: 206 mmHg
  SBP difference value compared with the basic value: (0.6 mmHg
[1]; [7]
  SBP: 204 mmHg
  SBP difference value compared with the basic value: (−1.4 mmHg
[1]; [8]
  SBP: 203 mmHg
  SBP difference value compared with the basic value: (−2.0 mmHg
[1]; [9]
  SBP: 207 mmHg
  SBP difference value compared with the basic value: (2.1 mmHg
[1]; [10]
  SBP: 208 mmHg
  SBP difference value compared with the basic value: (2.3 mmHg
[1]; Chl 0.36 mg/kg i.g. 8 days
  AUC0-24h (area under blood pressure reduction-time curve): −26.0 mmHg · h
  maximum reduction of the blood pressure: −3.7 mmHg
[1]; [11]
  SBP: 205 mmHg
  SBP difference value compared with the basic value: (−0.6 mmHg
[1]; [12]
  SBP: 204 mmHg
  SBP difference value compared with the basic value: (−1.3 mmHg
[1]; [13]
  SBP: 204 mmHg
  SBP difference value compared with the basic value: (−1.3 mmHg
[1]; [14]
  SBP: 204 mmHg
  SBP difference value compared with the basic value: (−1.4 mmHg
[1]; [15]
  SBP: 205 mmHg
  SBP difference value compared with the basic value: (−0.4 mmHg
[1]; [16]
  SBP: 204 mmHg
  SBP difference value compared with the basic value: (−1.4 mmHg
[1]; Chl 0.54 mg/kg i.g. 8 days
  AUC0-24h (area under blood pressure reduction-time curve): −57.0 mmHg · h
  maximum reduction of the blood pressure: −4.7 mmHg
[1]; Chl 0.72 mg/kg i.g. 8 days
  AUC0-24h (area under blood pressure reduction-time curve): −79.0 mmHg · h
  maximum reduction of the blood pressure: −5.7 mmHg
[1]; Chl 1.125 mg/kg
  time after administration at which an antihypertensive effect is seen: 4 h
[1]; Chl 1.125 mg/kg i.g. 8 days
  AUC0-24h (area under blood pressure reduction-time curve): −110.0 mmHg · h
  maximum reduction of the blood pressure: −12.0 mmHg
[1]; [17]
  SBP: 205 mmHg
  SBP difference value compared with the basic value: (−2.9 mmHg
[1]; [18]
  SBP: 199 mmHg
  SBP difference value compared with the basic value: (−8.9 mmHg
[1]; [19]
  SBP: 201 mmHg
  SBP difference value compared with the basic value: (−6.3 mmHg
[1]; [20]
  SBP: 202 mmHg
  SBP difference value compared with the basic value: (−6.0 mmHg
[1]; [21]
  SBP: 207 mmHg
  SBP difference value compared with the basic value: (−0.4 mmHg
[1]; [22]
  SBP: 206 mmHg
  SBP difference value compared with the basic value: (−1.7 mmHg
[1]; Chl 2.25 mg/kg
  period after administration with significant antihypertensive effect: 2 to 12 h
[1]; Chl 2.25 mg/kg i.g. 8 days
  AUC0-24h (area under blood pressure reduction-time curve): −199.0 mmHg · h
  maximum reduction of the blood pressure: −15.0 mmHg
[1]; [23]
  SBP: 198 mmHg
  SBP difference value compared with the basic value: (−8.3 mmHg
[1]; [24]
  SBP: 192 mmHg
  SBP difference value compared with the basic value: (−11.3 mmHg
[1]; [25]
  SBP: 195 mmHg
  SBP difference value compared with the basic value: (−11.1 mmHg
[1]; [26]
  SBP: 197 mmHg
  SBP difference value compared with the basic value: (−9.4 mmHg
[1]; [27]
  SBP: 202 mmHg
  SBP difference value compared with the basic value: (−4.6 mmHg
[1]; [28]
  SBP: 205 mmHg
  SBP difference value compared with the basic value: (−1.3 mmHg
[1]; Chl 0.0675, 0.36, 0.54 and 0.72 mg/kg
  influence on the maximum reduction of SBP and the AUC compared with the blank control group: no significant influence
[1]; Chl 1.125 and 2.25 mg/kg
  influence on the maximum reduction of SBP and the AUC compared with the blank control group: significant decrease
[1]; [29]
  SBP: 202 mmHg
  SBP difference value compared with the basic value: (−2.0 mmHg
[1]; [30]
  SBP: 202 mmHg
  SBP difference value compared with the basic value: (−2.0 mmHg
[1]; [31]
  SBP: 201 mmHg
  SBP difference value compared with the basic value: (−3.7 mmHg
[1]; [32]
  SBP: 203 mmHg
  SBP difference value compared with the basic value: (−1.9 mmHg
[1]; [33]
  SBP: 202 mmHg
  SBP difference value compared with the basic value: (−2.6 mmHg
[1]; [34]
  SBP: 203 mmHg
  SBP difference value compared with the basic value: (−1.6 mmHg
[1]; [35]
  SBP: 203 mmHg
  SBP difference value compared with the basic value: (−3.9 mmHg
[1]; [36]
  SBP: 202 mmHg
  SBP difference value compared with the basic value: (−4.9 mmHg
[1]; [37]
  SBP: 202 mmHg
  SBP difference value compared with the basic value: (−4.9 mmHg
[1]; [38]
  SBP: 205 mmHg
  SBP difference value compared with the basic value: (−2.6 mmHg
[1]; [39]
  SBP: 205 mmHg
  SBP difference value compared with the basic value: (−2.4 mmHg
[1]; [40]
  SBP: 205 mmHg
  SBP difference value compared with the basic value: (−2.3 mmHg
[2]; Chl 0.15625 mg/kg i.g. for 14 days
  AUC0-14d: −36.0 mmHg · d
[2]; Chl 0.15625 mg/kg i.g., after first administration
  AUC0-24h: −47.0 mmHg · h
[3]; [41]
  lowering of 24-hour blood pressure: 12.4 mmHg
  lowering of night-time blood pressure: 13.5 mmHg
[3]; according to Khoska
  antihypertensive efficacy relative to that of hydrochlorothiazide: 1.5-2 times
[4]
  valid control rate of blood pressure: 68.2%
patients
  reduction of SBP compared with the basic value: 12.7-15.9 mmHg

Source: patent US9216169B2, “Pharmaceutical composition comprising candesartan or ester thereof and chlortalidone, and use thereof” (TIANJIN INSTITUTE OF PHARMACEUTICAL RESEARCH, priority 2011, dated 2015)
